According to the CheMixHub viscosity set:
Several values for one entry are separate records, joined by “and”; a condition that tells them apart may be missing. Equal values may be shown once. ± gives the uncertainty stated by the source.

Assay: xn = mol fraction of the nth substance listed

CC(C)OCCO + CC(C)O
298.15 K, 101.33 kPa
Settings | viscosity [mPa·s]
x1 = 0.0272 | 2.051 ± 0.016
x1 = 0.0618 | 2.009 ± 0.015
x1 = 0.0768 | 1.995 ± 0.015
x1 = 0.092 | 1.986 ± 0.015
x1 = 0.1373 | 1.959 ± 0.015
x1 = 0.1766 | 1.941 ± 0.015
x1 = 0.2006 | 1.929 ± 0.015
x1 = 0.2467 | 1.914 ± 0.016
x1 = 0.2976 | 1.9 ± 0.016
x1 = 0.3502 | 1.899 ± 0.016
x1 = 0.3949 | 1.902 ± 0.017
x1 = 0.4259 | 1.903 ± 0.017
x1 = 0.4507 | 1.908 ± 0.017
x1 = 0.5015 | 1.918 ± 0.018
x1 = 0.5529 | 1.93 ± 0.019
x1 = 0.6181 | 1.948 ± 0.019
x1 = 0.6764 | 1.971 ± 0.02
x1 = 0.73 | 1.991 ± 0.021
x1 = 0.7886 | 2.014 ± 0.022
x1 = 0.8718 | 2.049 ± 0.024
x1 = 0.9241 | 2.064 ± 0.025
x1 = 0.9782 | 2.083 ± 0.026

COC(=O)c1ccccc1 + CCCCO
viscosity [mPa·s], 100 kPa
Settings | x1 = 0.05 | x1 = 0.1 | x1 = 0.2 | x1 = 0.3 | x1 = 0.45 | x1 = 0.6 | x1 = 0.749 | x1 = 0.849 | x1 = 0.899 | x1 = 0.95
293.2 K | 2.62 ± 0.056 | 2.397 ± 0.051 | 2.097 ± 0.045 | 1.922 ± 0.041 | 1.787 ± 0.038 | 1.746 ± 0.037 | 1.777 ± 0.038 | 1.836 ± 0.039 | 1.885 ± 0.04 | 1.95 ± 0.042
298.2 K | 2.308 ± 0.05 | 2.119 ± 0.045 | 1.866 ± 0.04 | 1.719 ± 0.037 | 1.606 ± 0.034 | 1.574 ± 0.034 | 1.604 ± 0.034 | 1.659 ± 0.035 | 1.703 ± 0.036 | 1.761 ± 0.038
303.2 K | 2.041 ± 0.044 | 1.882 ± 0.04 | 1.668 ± 0.036 | 1.545 ± 0.033 | 1.453 ± 0.031 | 1.429 ± 0.03 | 1.459 ± 0.031 | 1.509 ± 0.032 | 1.549 ± 0.033 | 1.6 ± 0.034
308.2 K | 1.813 ± 0.039 | 1.678 ± 0.036 | 1.5 ± 0.032 | 1.398 ± 0.03 | 1.32 ± 0.028 | 1.303 ± 0.028 | 1.333 ± 0.028 | 1.381 ± 0.029 | 1.417 ± 0.03 | 1.464 ± 0.031
313.2 K | 1.616 ± 0.035 | 1.505 ± 0.032 | 1.354 ± 0.029 | 1.267 ± 0.027 | 1.204 ± 0.026 | 1.193 ± 0.025 | 1.224 ± 0.026 | 1.269 ± 0.027 | 1.303 ± 0.028 | 1.345 ± 0.029

COC(=O)c1ccccc1 + COCCO
viscosity [mPa·s], 101 kPa
Settings | x2 = 0.0991 | x2 = 0.2001 | x2 = 0.3023 | x2 = 0.3992 | x2 = 0.4989 | x2 = 0.5981 | x2 = 0.699 | x2 = 0.7991 | x2 = 0.8983
298.15 K | 1.735 ± 0.14 | 1.689 ± 0.14 | 1.686 ± 0.14 | 1.675 ± 0.14 | 1.646 ± 0.14 | 1.675 ± 0.14 | 1.668 ± 0.14 | 1.699 ± 0.14 | 1.693 ± 0.14
303.15 K | 1.571 ± 0.13 | 1.523 ± 0.13 | 1.524 ± 0.13 | 1.511 ± 0.13 | 1.478 ± 0.12 | 1.508 ± 0.12 | 1.5 ± 0.12 | 1.525 ± 0.13 | 1.522 ± 0.13
308.15 K | 1.427 ± 0.12 | 1.385 ± 0.12 | 1.378 ± 0.12 | 1.366 ± 0.11 | 1.34 ± 0.11 | 1.362 ± 0.11 | 1.356 ± 0.11 | 1.375 ± 0.11 | 1.372 ± 0.11

O=C(OCc1ccccc1)c1ccccc1 + c1ccccc1
viscosity [mPa·s], 101 kPa
Settings | x1 = 0.11 | x1 = 0.1886 | x1 = 0.27 | x1 = 0.4124 | x1 = 0.52 | x1 = 0.5911 | x1 = 0.7827 | x1 = 0.8954
298.15 K | 0.9057 ± 0.0095 | 1.196 ± 0.032 | 1.514 ± 0.016 | 2.301 ± 0.061 | 3.073 ± 0.034 | 3.584 ± 0.095 | 5.478 ± 0.15 | 6.883 ± 0.18
313.15 K | 0.7205 ± 0.0075 | – | 1.161 ± 0.012 | – | 2.18 ± 0.023 | – | – | –

COC(=O)c1ccccc1 + C1CCCCC1
101 kPa, x1 = 0.5996
Settings | viscosity [mPa·s]
303.15 K | 0.9344 ± 0.096
308.15 K | 0.8826 ± 0.091
313.15 K | 0.8403 ± 0.087

CCOCCOCCOCC + CCCO
298.15 K, 101.33 kPa
Settings | viscosity [mPa·s]
x1 = 0.007 | 1.918 ± 0.015
x1 = 0.0129 | 1.894 ± 0.015
x1 = 0.0249 | 1.844 ± 0.015
x1 = 0.0395 | 1.788 ± 0.014
x1 = 0.0516 | 1.747 ± 0.014
x1 = 0.0695 | 1.687 ± 0.013
x1 = 0.097 | 1.611 ± 0.013
x1 = 0.1283 | 1.541 ± 0.012
x1 = 0.1736 | 1.458 ± 0.012
x1 = 0.2229 | 1.396 ± 0.011
x1 = 0.2672 | 1.354 ± 0.011
x1 = 0.3115 | 1.32 ± 0.011
x1 = 0.3638 | 1.291 ± 0.011
x1 = 0.4026 | 1.28 ± 0.01
x1 = 0.4592 | 1.259 ± 0.01
x1 = 0.5239 | 1.243 ± 0.01
x1 = 0.5856 | 1.231 ± 0.01
x1 = 0.6363 | 1.227 ± 0.01
x1 = 0.6742 | 1.225 ± 0.01
x1 = 0.7119 | 1.224 ± 0.01
x1 = 0.7662 | 1.222 ± 0.01
x1 = 0.8311 | 1.226 ± 0.01
x1 = 0.8815 | 1.231 ± 0.01
x1 = 0.9142 | 1.235 ± 0.01
x1 = 0.9468 | 1.239 ± 0.01
x1 = 0.9756 | 1.24 ± 0.01

CCNCCO + CCCCOCCO
viscosity, 101.33 kPa
Settings | 293.15 K | 298.15 K | 303.15 K | 308.15 K | 313.15 K | 318.15 K | 323.15 K
x1 = 0.1 | 3.962 ± 0.086 mPa·s | 3.42 ± 0.074 mPa·s | 2.977 ± 0.064 mPa·s | 2.61 ± 0.056 mPa·s | 2.304 ± 0.053 mPa·s | 2.046 ± 0.052 mPa·s | 1.828 ± 0.052 mPa·s
x1 = 0.13 | 3.96 ± 0.09 mPa·s | 3.42 ± 0.08 mPa·s | 2.98 ± 0.07 mPa·s | 2.61 ± 0.06 mPa·s | 2.3 ± 0.1 mPa·s | 2.05 ± 0.05 mPa·s | 1.83 ± 0.04 mPa·s
x1 = 0.2 | 4.804 ± 0.11 mPa·s | 4.103 ± 0.088 mPa·s | 3.536 ± 0.076 mPa·s | 3.07 ± 0.066 mPa·s | 2.685 ± 0.058 mPa·s | 2.365 ± 0.053 mPa·s | 2.096 ± 0.053 mPa·s
x1 = 0.36 | 5.75 ± 0.13 mPa·s | 4.86 ± 0.11 mPa·s | 4.15 ± 0.09 mPa·s | 3.57 ± 0.08 mPa·s | 3.09 ± 0.07 mPa·s | 2.7 ± 0.1 mPa·s | 2.38 ± 0.05 mPa·s
x1 = 0.4 | 5.753 ± 0.12 mPa·s | 4.86 ± 0.11 mPa·s | 4.146 ± 0.089 mPa·s | 3.567 ± 0.077 mPa·s | 3.094 ± 0.066 mPa·s | 2.703 ± 0.058 mPa·s | 2.377 ± 0.053 mPa·s
x1 = 0.5 | 6.822 ± 0.15 mPa·s | 5.698 ± 0.12 mPa·s | 4.811 ± 0.1 mPa·s | 4.101 ± 0.088 mPa·s | 3.527 ± 0.076 mPa·s | 3.057 ± 0.065 mPa·s | 2.67 ± 0.057 mPa·s
x1 = 0.57 | 7.99 ± 0.18 mPa·s | 6.61 ± 0.15 mPa·s | 5.53 ± 0.12 mPa·s | 4.67 ± 0.1 mPa·s | 3.98 ± 0.09 mPa·s | 3.43 ± 0.08 mPa·s | 2.97 ± 0.07 mPa·s
x1 = 0.6 | 7.994 ± 0.17 mPa·s | 6.608 ± 0.14 mPa·s | 5.525 ± 0.12 mPa·s | 4.67 ± 0.1 mPa·s | 3.984 ± 0.085 mPa·s | 3.429 ± 0.073 mPa·s | 2.975 ± 0.064 mPa·s
x1 = 0.7 | 9.303 ± 0.2 mPa·s | 7.606 ± 0.16 mPa·s | 6.3 ± 0.14 mPa·s | 5.278 ± 0.11 mPa·s | 4.466 ± 0.095 mPa·s | 3.815 ± 0.082 mPa·s | 3.288 ± 0.07 mPa·s
x1 = 0.8 | 10.71 ± 0.23 mPa·s and 12.33 ± 0.26 mPa·s | 8.67 ± 0.19 mPa·s and 9.873 ± 0.21 mPa·s | 7.112 ± 0.15 mPa·s and 8.025 ± 0.17 mPa·s | 5.907 ± 0.13 mPa·s and 6.61 ± 0.14 mPa·s | 4.962 ± 0.11 mPa·s and 5.51 ± 0.12 mPa·s | 4.21 ± 0.09 mPa·s and 4.644 ± 0.099 mPa·s | 3.606 ± 0.077 mPa·s and 3.953 ± 0.084 mPa·s
x1 = 0.9 | 14.15 ± 0.3 mPa·s | 11.21 ± 0.24 mPa·s | 9.023 ± 0.19 mPa·s | 7.368 ± 0.16 mPa·s | 6.098 ± 0.13 mPa·s | 5.103 ± 0.11 mPa·s | 4.316 ± 0.092 mPa·s
